The source of these data is patent US10077261B2, “Imidazolin-5-one derivative useful as FASN inhibitors for the treatment of cancer” (Janssen Pharmaceutica NV, priority 2012, dated 2018).

In assay [1] the test system is A2780 ovarian cells. Description: A2780 ovarian cell proliferation assay in lipid reduced medium, without palmitate (MTT). The assay is classed as cell-based. The conditions noted are these: Homo sapiens, A2780, 96 h; read-out: pIC50 A2780 Ovarian Cell, Without Palmitate (converted).
Assay [2] has as its system A2780 ovarian cells. The assay is described as follows: A2780 ovarian cell proliferation assay in lipid reduced medium, with palmitate (MTT). The assay is classed as cell-based. The note with it: Homo sapiens, A2780, 96 h; read-out: pIC50 A2780 Ovarian Cell, With Palmitate (converted). In outline: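 Seeded cells were switched next day to lipid-reduced serum, exposed to compound and 25 μM palmitate complexed with fatty-acid-free BSA, and incubated 96 h. Proliferation was then determined by MTT absorbance at 544 nm, with a best-fit curve of signal against concentration.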

For assay [3], the target named is T1, hFASN enzyme (full length) (Homo sapiens, UniProt P49327).
T1 construct: 10 μL hFASN enzyme (full length, 300 ng, purified in house); made in house
T1 sequence (P49327 whole entry): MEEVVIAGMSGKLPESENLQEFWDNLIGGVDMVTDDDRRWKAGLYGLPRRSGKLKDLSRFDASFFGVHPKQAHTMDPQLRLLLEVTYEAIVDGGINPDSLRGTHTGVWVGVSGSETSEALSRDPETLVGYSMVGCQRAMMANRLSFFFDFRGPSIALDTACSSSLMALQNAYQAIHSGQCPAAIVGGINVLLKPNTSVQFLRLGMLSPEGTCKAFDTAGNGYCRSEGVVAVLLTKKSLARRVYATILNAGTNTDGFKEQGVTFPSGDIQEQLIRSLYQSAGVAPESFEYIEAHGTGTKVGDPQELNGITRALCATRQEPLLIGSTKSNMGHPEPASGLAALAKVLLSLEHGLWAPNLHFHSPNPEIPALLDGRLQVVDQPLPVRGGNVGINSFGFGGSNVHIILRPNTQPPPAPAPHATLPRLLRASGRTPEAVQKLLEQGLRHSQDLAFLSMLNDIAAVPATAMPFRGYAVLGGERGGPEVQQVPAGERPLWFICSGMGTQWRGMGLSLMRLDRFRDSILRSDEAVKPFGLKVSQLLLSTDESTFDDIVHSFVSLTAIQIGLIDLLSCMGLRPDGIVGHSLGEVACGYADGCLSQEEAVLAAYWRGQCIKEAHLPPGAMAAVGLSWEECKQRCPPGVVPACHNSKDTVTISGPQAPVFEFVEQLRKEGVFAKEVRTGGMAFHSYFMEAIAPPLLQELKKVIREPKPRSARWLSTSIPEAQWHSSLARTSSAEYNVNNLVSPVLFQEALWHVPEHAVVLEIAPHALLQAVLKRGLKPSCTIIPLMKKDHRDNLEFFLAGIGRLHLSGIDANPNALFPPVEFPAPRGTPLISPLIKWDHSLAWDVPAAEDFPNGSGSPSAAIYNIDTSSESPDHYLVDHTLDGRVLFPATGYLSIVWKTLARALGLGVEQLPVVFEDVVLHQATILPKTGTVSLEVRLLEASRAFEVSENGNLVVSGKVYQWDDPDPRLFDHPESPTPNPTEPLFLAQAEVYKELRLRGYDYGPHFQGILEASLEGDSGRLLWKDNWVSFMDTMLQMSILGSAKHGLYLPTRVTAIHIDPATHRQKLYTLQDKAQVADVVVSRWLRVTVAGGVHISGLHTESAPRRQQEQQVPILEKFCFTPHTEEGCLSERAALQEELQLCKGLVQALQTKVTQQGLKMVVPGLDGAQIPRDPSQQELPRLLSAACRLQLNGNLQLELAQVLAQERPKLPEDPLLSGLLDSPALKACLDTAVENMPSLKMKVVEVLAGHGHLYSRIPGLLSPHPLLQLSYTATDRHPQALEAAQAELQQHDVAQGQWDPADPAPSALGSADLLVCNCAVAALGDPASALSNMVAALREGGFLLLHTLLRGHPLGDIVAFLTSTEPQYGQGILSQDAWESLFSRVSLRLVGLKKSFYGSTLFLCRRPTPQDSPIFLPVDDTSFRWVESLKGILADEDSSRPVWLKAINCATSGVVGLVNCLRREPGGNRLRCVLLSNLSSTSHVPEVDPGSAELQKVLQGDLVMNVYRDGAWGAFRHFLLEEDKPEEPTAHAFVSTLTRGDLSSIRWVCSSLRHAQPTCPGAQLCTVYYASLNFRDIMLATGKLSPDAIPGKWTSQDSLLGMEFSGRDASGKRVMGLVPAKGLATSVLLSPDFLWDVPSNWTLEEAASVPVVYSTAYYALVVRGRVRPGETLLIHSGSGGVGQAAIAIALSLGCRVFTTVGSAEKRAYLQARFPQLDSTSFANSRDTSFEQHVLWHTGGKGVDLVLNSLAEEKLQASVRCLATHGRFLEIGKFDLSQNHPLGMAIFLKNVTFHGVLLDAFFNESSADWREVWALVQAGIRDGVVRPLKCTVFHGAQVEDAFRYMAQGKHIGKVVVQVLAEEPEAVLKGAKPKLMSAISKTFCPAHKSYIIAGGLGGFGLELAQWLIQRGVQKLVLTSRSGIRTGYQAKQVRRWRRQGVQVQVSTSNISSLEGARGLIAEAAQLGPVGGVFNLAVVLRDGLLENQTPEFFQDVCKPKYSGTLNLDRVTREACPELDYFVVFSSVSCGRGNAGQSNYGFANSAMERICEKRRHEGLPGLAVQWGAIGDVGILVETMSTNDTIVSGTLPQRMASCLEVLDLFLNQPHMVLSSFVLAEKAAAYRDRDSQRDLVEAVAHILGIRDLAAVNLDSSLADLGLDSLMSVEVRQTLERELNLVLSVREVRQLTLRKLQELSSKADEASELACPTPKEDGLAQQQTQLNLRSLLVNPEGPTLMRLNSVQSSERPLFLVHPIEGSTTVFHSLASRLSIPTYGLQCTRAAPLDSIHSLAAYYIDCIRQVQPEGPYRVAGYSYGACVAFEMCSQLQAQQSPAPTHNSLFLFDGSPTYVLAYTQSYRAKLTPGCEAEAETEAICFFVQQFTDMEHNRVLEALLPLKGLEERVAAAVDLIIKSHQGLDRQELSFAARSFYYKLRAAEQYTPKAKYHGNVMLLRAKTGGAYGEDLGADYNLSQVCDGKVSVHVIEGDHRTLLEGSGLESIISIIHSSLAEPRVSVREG
Description: Fatty Acid Synthase (FASN) inhibition scintillation proximity assay. The assay is classed as biochemical. The conditions noted are these: for inhibition at 10 µM: read-out: Human FASN % inhibition @ 10 μM, 10 μM test compound; for IC50: read-out: Human FASN pIC50 (converted). An outline of the steps:
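Purified full-length hFASN (300 ng) converts ^3H-acetyl-CoA plus malonyl-CoA to ^3H-palmitate in 100 mM KH2PO4 pH 7.5, 1 mM DTT; compounds tested at 0.01–30 μM. Product captured on streptavidin imaging beads and read by LEADseeker at 610 nm after ≥24 h; 4-parameter logistic fit versus controls.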

The structures appear in SMILES notation.

Take `O=C(C1CC1)N1CC(CN2C(=O)C3(CC3)N=C2c2ccc(-c3ccc4nn(CCO)cc4c3)cc2)C1` [compound 549, 6-{[1-(Cyclopropylcarbonyl)azetidin-3-yl]methyl}-5-{4-[2-(2-hydroxyethyl)-2H-indazol-5-yl]phenyl}-4,6-diazaspiro[2.4]hept-4-en-7-one]: the IC50 is 3.8 µM in assay [1], above 10 µM in assay [2] and 1.78 µM in assay [3]. In addition, in assay [3], the inhibition – broadly, the change of the read-out against control, counted positive when it falls – at 10 µM was 83%.

On to `CC(C)n1ncc2ccc(-c3ccc(C4=NC5(CC5)C(=O)N4CC4CN(C(=O)C5CC5)C4)cc3)cc21` [compound 550, 6-{[1-(Cyclopropylcarbonyl)azetidin-3-yl]methyl}-5-{4-[1-(1-methylethyl)-1H-indazol-6-yl]phenyl}-4,6-diazaspiro[2.4]hept-4-en-7-one], for which the IC50 in assay [1] is 3.47 µM; in assay [2] it was around 10 µM; in assay [3], 1.82 µM. Also, the inhibition at 10 µM in assay [3] is 80%.

Take `O=C(C1CC1)N1CC(CN2C(=O)C3(CC3)N=C2c2ccc(-c3cc4cnn(CCO)c4cc3F)cc2)C1` [compound 552, 6-{[1-(Cyclopropylcarbonyl)azetidin-3-yl]methyl}-5-{4-[6-fluoro-1-(2-hydroxyethyl)-1H-indazol-5-yl]phenyl}-4,6-diazaspiro[2.4]hep-t-4-en-7-one]: the IC50 was 1.7 µM in assay [1], above 10 µM in assay [2] and 4.9 µM in assay [3]. Moreover, the inhibition at 10 µM in assay [3] is 66%.

For the compound `O=C(C1CC1)N1CC(CN2C(=O)C3(CC3)N=C2c2ccc(-c3cc4cn(CCO)nc4cc3F)cc2)C1` [compound 553, 6-{[1-(Cyclopropylcarbonyl)azetidin-3-yl]methyl}-5-{4-[6-fluoro-2-(2-hydroxyethyl)-2H-indazol-5-yl]phenyl}-4,6-diazaspiro[2.4]hept-4-en-7-one], the IC50 was 2.75 µM in assay [1], above 10 µM in assay [2] and 1.35 µM in assay [3]. Also, the inhibition at 10 µM in assay [3] worked out at 85%.

As for `Cc1cc2ccc(-c3ccc(C4=NC5(CC5)C(=O)N4CC4CN(C(=O)C5CC5)C4)cc3)cc2nc1Cl` [compound 555, 5-[4-(2-Chloro-3-methylquinolin-7-yl)phenyl]-6-{[1-(cyclopropylcarbonyl)azetidin-3-yl]methyl}-4,6-diazaspiro[2.4]hept-4-en-7-one], the IC50 in assay [1] is around 5.13 µM; in assay [2], above 10 µM; in assay [3] it was 1.86 µM. Also, the inhibition at 10 µM in assay [3] turned out to be 75%.

As to `O=C(C1CC1)N1CC(CN2C(=O)C3(CC3)N=C2c2ccc(-c3ccc4c(cnn4CCO)c3)cc2)C1` [compound 556, 6-{[1-(Cyclopropylcarbonyl)azetidin-3-yl]methyl}-5-{4-[1-(2-hydroxyethyl)-1H-indazol-5-yl]phenyl}-4,6-diazaspiro[2.4]hept-4-en-7-one], the IC50 in assay [1] is 5.89 µM; in assay [2], above 10 µM; in assay [3], 5.25 µM. In addition, in assay [3], the inhibition at 10 µM is 61%.

As to `Cc1cc(Cl)nc2cc(-c3ccc(C4=NC5(CC5)C(=O)N4CC4CN(C(=O)C5CC5)C4)cc3)ccc12` [compound 559, 5-[4-(2-Chloro-4-methylquinolin-7-yl)phenyl]-6-{[1-(cyclopropylcarbonyl)azetidin-3-yl]methyl}-4,6-diazaspiro[2.4]hept-4-en-7-one], the figures for the IC50 in assay [1], in assay [2] and in assay [3] were 9.33 µM, above 10 µM and 6.03 µM, respectively. The inhibition at 10 µM in assay [3] was 59%.

For `O=C(C1CC1)N1CC(CN2C(=O)C3(CC3)N=C2c2ccc(-c3cnc4c(F)cccc4c3)cc2)C1` [compound 560, 6-{[1-(Cyclopropylcarbonyl)azetidin-3-yl]methyl}-5-[4-(8-fluoroquinolin-3-yl)phenyl]-4,6-diazaspiro[2.4]hept-4-en-7-one], the IC50 in assay [1] was around 7.59 µM; in assay [2] it was above 10 µM; in assay [3], 3.72 µM. The inhibition at 10 µM in assay [3] was determined as 68%.
